ChEMBL document CHEMBL4043273, “Phenotypic Optimization of Urea-Thiophene Carboxamides To Yield Potent, Well Tolerated, and Orally Active Protective Agents against Aminoglycoside-Induced Hearing Loss” (J Med Chem, 2018)
≈ marks a conversion by molar mass, not a printed value.

Molecular target: Voltage-gated inwardly rectifying potassium channel KCNH2 (Homo sapiens, UniProt Q12809)
Settings: not given

Chain of Voltage-gated inwardly rectifying potassium channel KCNH2 (Q12809 whole entry): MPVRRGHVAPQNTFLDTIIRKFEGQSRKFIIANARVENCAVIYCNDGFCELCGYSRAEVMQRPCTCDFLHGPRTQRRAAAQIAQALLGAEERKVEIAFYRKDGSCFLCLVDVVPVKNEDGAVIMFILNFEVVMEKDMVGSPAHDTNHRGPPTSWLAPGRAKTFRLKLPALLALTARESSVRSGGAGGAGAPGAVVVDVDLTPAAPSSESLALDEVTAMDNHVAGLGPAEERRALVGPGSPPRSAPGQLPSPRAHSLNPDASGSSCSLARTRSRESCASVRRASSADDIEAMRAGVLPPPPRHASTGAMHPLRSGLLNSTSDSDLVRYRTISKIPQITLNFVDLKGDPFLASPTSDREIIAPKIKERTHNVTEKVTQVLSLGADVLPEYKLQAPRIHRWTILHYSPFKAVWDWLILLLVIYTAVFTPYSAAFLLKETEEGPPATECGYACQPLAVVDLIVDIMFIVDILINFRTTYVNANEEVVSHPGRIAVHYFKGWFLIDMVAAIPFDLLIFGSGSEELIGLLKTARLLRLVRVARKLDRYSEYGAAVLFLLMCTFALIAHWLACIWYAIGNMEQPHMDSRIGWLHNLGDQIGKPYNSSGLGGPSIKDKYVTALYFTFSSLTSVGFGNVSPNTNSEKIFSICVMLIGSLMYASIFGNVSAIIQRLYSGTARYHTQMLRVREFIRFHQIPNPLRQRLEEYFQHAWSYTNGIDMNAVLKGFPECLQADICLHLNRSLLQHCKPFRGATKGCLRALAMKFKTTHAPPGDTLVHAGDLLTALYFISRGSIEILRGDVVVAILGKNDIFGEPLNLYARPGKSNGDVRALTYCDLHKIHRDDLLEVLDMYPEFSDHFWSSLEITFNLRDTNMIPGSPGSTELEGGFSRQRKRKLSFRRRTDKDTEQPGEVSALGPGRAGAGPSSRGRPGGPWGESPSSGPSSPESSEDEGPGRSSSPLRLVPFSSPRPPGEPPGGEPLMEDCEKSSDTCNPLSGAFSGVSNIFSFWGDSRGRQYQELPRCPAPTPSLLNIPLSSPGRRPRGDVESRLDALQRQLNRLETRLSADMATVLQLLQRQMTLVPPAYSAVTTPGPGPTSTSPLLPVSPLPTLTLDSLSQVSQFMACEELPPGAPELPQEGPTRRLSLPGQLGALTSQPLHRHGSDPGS

Row | Structure (SMILES) | IC50 [µM]
1 | CC[N+]1(C)CCc2c(sc(NC(=O)Nc3ccc(Cl)cc3)c2C(N)=O)C1 (centres undefined) | 3.38
2 | NC(=O)c1c(NC(=O)Nc2ccc(Cl)cc2)sc2c1CC[N+]1(CCCC1)C2 | 3.51
3 | NC(=O)c1c(NC(=O)Nc2ccc(Cl)cc2)sc2c1CC[N+]1(CCOCC1)C2 | 12.4

Organism: Danio rerio
Assay: Protection against neomycin-induced hair cell death in AB zebra fish larvae assessed as increase in hair cell survival preincubated for 1 hr followed by neomycin challenge for 1 hr by DASPEI staining-based epifluorescence dissecting microscopic method
Format: functional
Settings: not given

Row | Structure (SMILES) | EC50 [µM]
4 | CN1[C@H]2CC[C@@H]1c1sc(NC(=O)Nc3ccc(Cl)cc3)c(C(N)=O)c1C2 (single isomer, unassigned) | 0.27
5 | CCN1CCc2c(sc(NC(=S)Nc3ccc(Cl)cc3)c2C(N)=O)C1 | 6.57
6 | NC(=O)c1c(NC(=O)Nc2ccc(Cl)cc2)sc2c1C[C@@H]1CC[C@H]2N1 | 0.27
7 | CC(C)(C)OC(=O)CCCC[N+]1(C)CCc2c(sc(NC(=O)Nc3ccc(Cl)cc3)c2C(N)=O)C1 (centres undefined) | 0.14
8 | CCN1CCc2c(sc(NC(=O)Nc3ccc(Cl)cc3)c2C(=O)OC)C1 | > 25
9 | NC(=O)c1c(NC(=O)Nc2ccc(Cl)cc2)sc2c1[C@@H]1CC[C@H](C2)N1 | 0.03
10 | CC(C)(C)OC(=O)CCCCCN1CCc2c(sc(NC(=O)Nc3ccc(Cl)cc3)c2C(N)=O)C1 | 0.62
11 | CCN1CCc2c(sc(NC(=O)Nc3ccc(Cl)cc3)c2C(=O)NCCN2CCOCC2)C1 | 9.38
12 | CCC1CCc2c(sc(NC(=O)Nc3ccc(Cl)cc3)c2C(N)=O)C1 (centres undefined) | > 25
13 | CCN1CCc2c(sc(NC(=O)Nc3cccc(C)c3)c2C(N)=O)C1 | 13
14 | CCN1CCc2c(sc(NC(=O)CN3CCCCC3)c2C(N)=O)C1 | > 25
15 | CCN1CCc2c(sc(NC(=O)Nc3ccc(Cl)cc3)c2C(=O)NCCO)C1 | 9.4
16 | CCN1CCc2c(sc(NC(=O)[C@@H]3CCCN3)c2C(N)=O)C1 | > 25
17 | C[N+]1(CC2CCCCC2)CCc2c(sc(NC(=O)Nc3ccc(Cl)cc3)c2C(N)=O)C1 (centres undefined) | 0.1
18 | CC(C)(C)OC(=O)CCC[N+]1(C)CCc2c(sc(NC(=O)Nc3ccc(Cl)cc3)c2C(N)=O)C1 (centres undefined) | 0.25
19 | NC(=O)c1c(NC(=O)Nc2ccc(Cl)cc2)sc2c1[C@H]1CC[C@@H](C2)N1 | 5
20 | CCN1CCc2c(sc(NC(=O)NCC3CCCO3)c2C(N)=O)C1 (centres undefined) | > 25
21 | CCN1CCc2c(sc(NC(=O)Nc3ccc(I)cc3)c2C(N)=O)C1 | 1.62
22 | C[N+]1(CC2CCC2)CCc2c(sc(NC(=O)Nc3ccc(Cl)cc3)c2C(N)=O)C1 (centres undefined) | 0.21
23 | CN1C2CCC1c1c(sc(NC(=O)Nc3ccc(Cl)cc3)c1C(N)=O)C2 (racemic) | 0.36
24 | CCN1CCc2c(sc(NC(=O)Nc3ccccc3)c2C(N)=O)C1 | > 25
25 | COCCCN1CCc2c(sc(NC(=O)Nc3ccc(Cl)cc3)c2C(N)=O)C1 | 2.4
26 | CCN1CCc2c(sc(NC(=O)Nc3ccc4ccccc4c3)c2C(N)=O)C1 | 1.78
27 | CC[N+]1(C)CCc2c(sc(NC(=O)Nc3ccc(Cl)cc3)c2C(N)=O)C1 (centres undefined) | 1.96

Row | Structure (SMILES) | EC50 [µM]
28 | CN1[C@H]2CC[C@@H]1c1c(sc(NC(=O)Nc3ccc(Cl)cc3)c1C(N)=O)C2 | > 2.25
29 | CCN1CCc2sc(NC(=O)Nc3ccc(Cl)cc3)c(C(N)=O)c2C1 | 4.61
30 | CCN1CCc2c(sc(NC(=O)C3(c4ccc(Cl)cc4)CC3)c2C(N)=O)C1 | > 25
31 | CCC(O)c1cc2c(cc1NC(=O)Nc1ccc(Cl)cc1)OCCO2 (centres undefined) | > 25
32 | NC(=O)c1c(NC(=O)Nc2ccc(Cl)cc2)sc2c1CCNC2 | 3.26
33 | NC(=O)c1c(NC(=O)Nc2ccc(Cl)cc2)sc2c1CC1CCC2N1 (centres undefined) | 0.21
34 | CCN1CCc2c(sc(NC(=O)C3(C(=O)Nc4ccc(Cl)cc4)CC3)c2C(N)=O)C1 | > 25
35 | CC(C)C[N+]1(C)CCc2c(sc(NC(=O)Nc3ccc(Cl)cc3)c2C(N)=O)C1 (centres undefined) | 0.38
36 | CCN1CCc2sc(NC(=O)Nc3ccc(Cl)cc3)c(C(N)=O)c2CC1 | 5.8
37 | O=C(Cc1ccc(Cl)cc1)Nc1nc(C(=O)N2CCCCC2)cs1 | > 25
38 | CCN1CCc2c(sc(NC(=O)Nc3ccc(Cl)cc3)c2C#N)C1 | > 25
39 | C[N+]1(CC2CC2)CCc2c(sc(NC(=O)Nc3ccc(Cl)cc3)c2C(N)=O)C1 (centres undefined) | 0.36
40 | NC(=O)c1c(NC(=O)Nc2ccc(Cl)cc2)sc2c1CCCC2 | > 25
41 | CCN1CCc2c(sc(NC(=O)Nc3cscc3C(=O)OC)c2C(N)=O)C1 | > 25
42 | CCN1CCc2c(sc(NC=O)c2C(N)=O)C1 | > 25
43 | CC1CCc2nc(NC(=O)Nc3ccc(Cl)cc3)sc2C1 (centres undefined) | > 25
44 | C[N+]1(CC2CCCC2)CCc2c(sc(NC(=O)Nc3ccc(Cl)cc3)c2C(N)=O)C1 (centres undefined) | 0.2
45 | NC(=O)c1c(NC(=O)Nc2ccc(Cl)cc2)sc2c1CCN(CCCNC(=O)CCc1cccnc1)C2 | 0.47
46 | CCN1CCc2c(ccc(NC(=O)Nc3ccc(Cl)cc3)c2C(N)=O)C1 | > 25
47 | CCN1CCc2c(sc(N)c2C(N)=O)C1 | > 25
48 | CCN1Cc2sc(NC(=O)Nc3ccc(Cl)cc3)c(C(N)=O)c2C1 | 4.34
49 | CCN1CCc2c(sc(NC(=O)NCc3cccc(Cl)c3)c2C(N)=O)C1 | > 25
50 | NC(=O)c1c(NC(=O)Nc2ccc(Cl)cc2)sc2c1CCN(CC1CCCC1)C2 | 1.83
51 | NC(=O)c1c(NC(=O)Nc2ccc(Cl)cc2)sc2c1C[C@H]1CC[C@@H]2N1 | 3.92

Row | Structure (SMILES) | EC50 [µM]
52 | CC(C)(C)OC(=O)CCCN1CCc2c(sc(NC(=O)Nc3ccc(Cl)cc3)c2C(N)=O)C1 | 0.56
53 | CCN1CCc2c(sc(NC(=O)Nc3ccc(Cl)cc3Cl)c2C(N)=O)C1 | 11.5
54 | CC(C)N1CCc2c(sc(NC(=O)Nc3ccc(Cl)cc3)c2C(N)=O)C1 | 1.49
55 | CC[N+]1(CC)CCc2c(sc(NC(=O)Nc3ccc(Cl)cc3)c2C(N)=O)C1 | 0.45
56 | CN1[C@@H]2CC[C@H]1c1sc(NC(=O)Nc3ccc(Cl)cc3)c(C(N)=O)c1C2 (single isomer, unassigned) | 7.21
57 | Cc1c(CN2CCOCC2)sc(NC(=O)Nc2ccc(Cl)cc2)c1C(N)=O | 6.92
58 | NC(=O)c1c(NC(=O)Nc2ccc(Cl)cc2)sc2c1C1CCC(C2)N1 (racemic) | 0.11
59 | CCN1CCc2c(sc(NC(=O)Nc3ccc(Cl)cc3)c2C(=O)c2nnco2)C1 | > 25
60 | CCN1CCc2c(sc(NC(=O)NCCN3CCOCC3)c2C(N)=O)C1 | > 25
61 | CCN1CCc2c(sc(NC(=O)Nc3ccc(Cl)cc3)c2C(=O)O)C1 | > 25
62 | CC(C)CN1CCc2c(sc(NC(=O)Nc3ccc(Cl)cc3)c2C(N)=O)C1 | 4.51
63 | CCN1CCc2c(sc(NC(=O)Nc3ccc(Cl)cc3)c2C(=O)NC2COC2)C1 | > 25
64 | COCCC[N+]1(C)CCc2c(sc(NC(=O)Nc3ccc(Cl)cc3)c2C(N)=O)C1 (centres undefined) | 0.48
65 | CN1CCc2c(sc(NC(=O)Nc3ccc(Cl)cc3)c2C(N)=O)C1 | 4.7
66 | CC(C)(C)OC(=O)CCCCC[N+]1(C)CCc2c(sc(NC(=O)Nc3ccc(Cl)cc3)c2C(N)=O)C1 (centres undefined) | 0.11
67 | CCN1CCc2c(sc(NC(=O)c3ccccc3)c2C(N)=O)C1 | > 25
68 | CCN1CCCc2c(sc(NC(=O)Nc3ccc(Cl)cc3)c2C(N)=O)C1 | 3.98
69 | NC(=O)c1c(NC(=O)Nc2ccc(Cl)cc2)sc2c1CC[N+]1(CCCC1)C2 | 0.41
70 | CC(C)(C)OC(=O)CN1CCc2c(sc(NC(=O)Nc3ccc(Cl)cc3)c2C(N)=O)C1 | > 25
71 | CCN1CCc2c(sc(NC(=O)Nc3ccc(Br)cc3)c2C(N)=O)C1 | 3.13
72 | CCCCc1nnc(NC(=O)Nc2ccc(Cl)cc2)s1 | > 25
73 | CC(C)(C)CN1CCc2c(sc(NC(=O)Nc3ccc(Cl)cc3)c2C(N)=O)C1 | 5.56
74 | CCC(C)(C)C1CCc2c(sc(NC(=O)Nc3ccc(Cl)cc3)c2C(N)=O)C1 (centres undefined) | > 25
75 | CCN1CCc2c(sc(NC(=O)Nc3ccc(Cl)cc3)c2C(=O)c2nc(C)no2)C1 | > 25

Row | Structure (SMILES) | EC50 [µM]
76 | NC(=O)c1c(NC(=O)Nc2ccc(Cl)cc2)sc2c1CCN(CC1CC1)C2 | 1.22
77 | NC(=O)c1c(NC(=O)Nc2ccc(Cl)cc2)sc2c1CCN(CC1CCCCC1)C2 | 1.89
78 | CCN1CCc2c(sc(NC(=O)Nc3ccc(-c4ccccc4)cc3)c2C(N)=O)C1 | 3.39
79 | CN1C2CCC1c1sc(NC(=O)Nc3ccc(Cl)cc3)c(C(N)=O)c1C2 (centres undefined) | 0.62
80 | C[N+]1(C2CCc3c(sc(NC(=O)Nc4ccc(Cl)cc4)c3C(N)=O)C2)CCC1 (centres undefined) | 3.92
81 | NC(=O)c1c(NC(=O)Nc2ccc(Cl)cc2)sc2c1CCN(CC1CCC1)C2 | 1.36
82 | CCN1CCc2c(sc(NC(=O)Nc3ccc(Cl)cc3)c2C(=O)N2CCOCC2)C1 | > 25
83 | CCN1CCc2c(sc(NC(=O)Nc3ccc(C(F)(F)F)cc3)c2C(N)=O)C1 | 2.91
84 | NC(=O)c1c(NC(=O)Nc2ccc(Cl)cc2)sc2c1CCN(CCCNC(=O)CCc1cccc3ccccc13)C2 | 0.11
85 | NC(=O)c1c(NC(=O)Nc2ccc(Cl)cc2)sc2c1CCN(C1CCOCC1)C2 | 2.83
86 | CCN1CCc2c(sc(NC(=O)Nc3cccc(C#N)c3)c2C(N)=O)C1 | 10.3
87 | CCN1CCc2c(sc(NC(=O)Nc3cccc(Cl)c3Cl)c2C(N)=O)C1 | 17.4
88 | NC(=O)c1c(NC(=O)Nc2ccc(Cl)cc2)sc2c1CC[N+]1(CCOCC1)C2 | 1.21
89 | CCN1CCc2c(sc(NC(=O)Nc3ccc(Cl)cc3)c2C(=O)NC)C1 | > 25
90 | CC(C)(C)OC(=O)CCN1CCc2c(sc(NC(=O)Nc3ccc(Cl)cc3)c2C(N)=O)C1 | 1.1
91 | CC(C)(C)OC(=O)N1CCc2c(sc(NC(=O)Nc3ccc(Cl)cc3)c2C(N)=O)C1 | > 25
92 | CCCN1CCc2c(sc(NC(=O)Nc3ccc(Cl)cc3)c2C(N)=O)C1 | 3.5
93 | C[N+](C)(C)C1CCc2c(sc(NC(=O)Nc3ccc(Cl)cc3)c2C(N)=O)C1 (centres undefined) | 5.87
94 | CC(C)(C)C[N+]1(C)CCc2c(sc(NC(=O)Nc3ccc(Cl)cc3)c2C(N)=O)C1 (centres undefined) | 0.29
95 | CC(C)[N+]1(C)CCc2c(sc(NC(=O)Nc3ccc(Cl)cc3)c2C(N)=O)C1 (centres undefined) | 0.96
96 | CC(C)(C)OC(=O)CCCCN1CCc2c(sc(NC(=O)Nc3ccc(Cl)cc3)c2C(N)=O)C1 | 0.71

Tested on: not listed separately
Assay: Aqueous solubility of compound at pH 7.4
Format: physicochemical
Settings: aqueous medium, read-out: solubility

Row | Structure (SMILES) | solubility [µM]
97 | CN1[C@@H]2CC[C@H]1c1c(sc(NC(=O)Nc3ccc(Cl)cc3)c1C(N)=O)C2 (single isomer, unassigned) | 76 (≈ 29.7 µg/mL)

Same assay, conditions: buffer

Row | Structure (SMILES) | solubility [µM]
98 | CCN1CCc2c(sc(NC(=O)Nc3ccc(Cl)cc3)c2C(N)=O)C1 | 85 (≈ 32.2 µg/mL)
99 | CC1(C)Cc2c(sc(NC(=O)Nc3ccc(Cl)cc3)c2C(N)=O)C(C)(C)N1 | 83 (≈ 33.8 µg/mL)
